Results from PMC8476755 (Frontiers in Chemistry, 2021).
“Also recorded” adds a separate entry of the source.

Biological target: T1, human α1β2γ2 GABAA receptors (Homo sapiens, UniProt P14867+P47870)
T1 construct: expressed in transfected cells
Assay: FMP assay at GABAA receptors in HEK293 cells
Type: cell-based
Details: for Activity at α1β2γ2 GABAA receptors: 2 tested up to 100 µM
Text: For this purpose we chose the major GABAA receptor subtype in the brain, α1β2γ2, and used the FMP assay for functional assessment as previously reported ([Falk-Petersen et al., 2020]). This assay detects changes in membrane potential for an average cell population through changes in fluorescence of a membrane pre-equilibrated fluorescent blue dye. It therefore provides an indirect measure of activity with the advantage of being able to discern between GAT substrates and inhibitors ([Kragholm et al., 2013]; [Al-Khawaja et al., 2014]; [Kickinger et al., 2020]).
The tsA201 cell line (a transformed HEK293 cell line), the Flp-In CHO cell lines stably expressing human (h) GATs and the HEK293 cell line stably expressing human α1β2γ2 GABAA receptors have been described previously and were cultured accordingly ([Al-Khawaja et al., 2014]; [Falk-Petersen et al., 2020]). […]
The FMP assay performed on human α1β2γ2 GABAA receptors in HEK293 cells was performed as described and data analyzed accordingly ([Falk-Petersen et al., 2020]). […] Test compound solutions were prepared at 4x concentration in assay buffer and added to ligand plates pre-heated at 37°C for 10–15 min in the FLEXstation3 plate reader (Molecular Devices). After incubation, 33.3 µL test compound solution (4x) was automatically transferred to each well in the cell plate and the signal was measured for 90 s by measuring emission at 560 nm caused by excitation at 530 nm. […] Data obtained in the FMP assay are given as relative changes in fluorescence units (ΔRFU) by subtracting the average of the baseline fluorescence signal from the peak fluorescence signal after compound addition. […] A Gaddum-Schild plot was performed according to the equation: log(dr-1) = log(B)+pA2, where B is the concentration of the inhibitor, pA2 is the negative logarithm of the dissociation constant KB, and the dose-ratio dr is equal to the EC′50/EC50, where EC′50 and EC50 are determined in the presence and absence of the different inhibitor concentrations, respectively. […]

T1 sequence (P14867 28-456): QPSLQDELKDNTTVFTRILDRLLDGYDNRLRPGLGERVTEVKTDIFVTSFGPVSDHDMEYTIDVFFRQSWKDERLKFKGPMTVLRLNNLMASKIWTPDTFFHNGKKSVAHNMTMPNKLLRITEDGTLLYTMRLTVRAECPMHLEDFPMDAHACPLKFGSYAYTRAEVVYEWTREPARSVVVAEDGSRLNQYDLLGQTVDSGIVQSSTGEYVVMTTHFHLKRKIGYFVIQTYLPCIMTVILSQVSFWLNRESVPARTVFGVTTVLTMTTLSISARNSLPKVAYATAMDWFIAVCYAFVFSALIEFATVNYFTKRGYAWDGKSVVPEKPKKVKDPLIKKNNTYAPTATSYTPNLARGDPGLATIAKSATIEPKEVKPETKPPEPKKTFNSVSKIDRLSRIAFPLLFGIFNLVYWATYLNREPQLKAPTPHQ
T1 sequence (P47870 25-512 limits assumed): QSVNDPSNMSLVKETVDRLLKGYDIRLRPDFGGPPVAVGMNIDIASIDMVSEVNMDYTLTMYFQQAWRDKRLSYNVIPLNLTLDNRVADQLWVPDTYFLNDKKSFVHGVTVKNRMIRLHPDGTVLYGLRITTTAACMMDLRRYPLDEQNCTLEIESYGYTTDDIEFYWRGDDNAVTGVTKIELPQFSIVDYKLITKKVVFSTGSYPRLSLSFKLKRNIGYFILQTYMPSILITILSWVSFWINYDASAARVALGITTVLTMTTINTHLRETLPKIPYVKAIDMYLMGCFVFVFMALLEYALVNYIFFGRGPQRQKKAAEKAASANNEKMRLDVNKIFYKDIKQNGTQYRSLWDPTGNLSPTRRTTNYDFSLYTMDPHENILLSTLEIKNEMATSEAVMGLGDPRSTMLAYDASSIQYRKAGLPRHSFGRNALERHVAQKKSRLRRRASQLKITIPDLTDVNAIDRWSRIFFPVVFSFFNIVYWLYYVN
T1 sequence (P18507 40-475 partner): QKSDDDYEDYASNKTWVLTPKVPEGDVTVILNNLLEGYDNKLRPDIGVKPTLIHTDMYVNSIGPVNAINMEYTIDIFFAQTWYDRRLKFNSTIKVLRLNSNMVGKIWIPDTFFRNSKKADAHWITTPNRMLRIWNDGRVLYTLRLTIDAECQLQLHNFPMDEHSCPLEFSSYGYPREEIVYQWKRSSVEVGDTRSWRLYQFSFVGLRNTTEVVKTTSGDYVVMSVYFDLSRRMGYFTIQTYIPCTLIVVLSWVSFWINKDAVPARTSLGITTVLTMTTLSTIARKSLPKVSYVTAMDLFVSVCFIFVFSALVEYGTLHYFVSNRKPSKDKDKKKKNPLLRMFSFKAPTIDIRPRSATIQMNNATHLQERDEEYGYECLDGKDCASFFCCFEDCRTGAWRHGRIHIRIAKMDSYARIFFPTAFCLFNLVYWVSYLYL

Compound | Activity at α1β2γ2 GABAA receptors | EC50 (agonist activity, HEK293 cells) [µM]
CN[C@@]12CC[C@H](C(=O)O)[C@@H]1C2 [compound 2] | completely devoid of activity; also recorded: inactive | 
N[C@@]12CC[C@H](C(=O)O)[C@@H]1C2 [bicyclo-GABA, (1S,2S,5R)-5-aminobicyclo[3.1.0]hexane-2-carboxylic acid] | low micromolar agonistic activity | 5.1
